In patent US11912686B2 (Gilead Sciences, Inc., priority 2020, dated 2024):

Target: human LPAR1 (Homo sapiens (Human), UniProt Q92633)
Test: LPAR1 intracellular calcium mobilization assay (antagonist mode, FLIPR)
Type: cell-based
Conditions: CHO-K1 EDG2 cells expressing human LPAR1, LPA 18:2 at EC80 (100 nM), test compound 0.5 nM to 10 μM

Sequence of human LPAR1 (Q92633 whole entry): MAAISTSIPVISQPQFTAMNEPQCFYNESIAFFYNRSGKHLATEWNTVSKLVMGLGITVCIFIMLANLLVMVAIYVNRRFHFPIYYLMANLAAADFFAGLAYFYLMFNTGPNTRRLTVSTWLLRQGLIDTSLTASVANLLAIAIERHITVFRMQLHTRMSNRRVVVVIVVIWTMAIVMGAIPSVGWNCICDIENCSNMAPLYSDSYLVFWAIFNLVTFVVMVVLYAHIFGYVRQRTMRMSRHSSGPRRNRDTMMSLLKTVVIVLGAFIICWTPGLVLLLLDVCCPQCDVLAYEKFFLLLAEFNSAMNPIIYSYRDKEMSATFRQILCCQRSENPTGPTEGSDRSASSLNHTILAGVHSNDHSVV

Row | SMILES | EC50 [nM]
1 | C[C@@H](OC(=O)Nc1c(-c2ccc(NC(=O)[C@H]3C[C@@H]3F)cn2)nnn1C)c1cccnc1Cl [Compound 52, (R)-1-(2-chloropyridin-3-yl)ethyl (4-(5-((1R,2S)-2-fluorocyclopropane-1-carboxamido)pyridin-2-yl)-1-methyl-1H-1,2,3-triazol-5-yl)carbamate] | 622
2 | C[C@@H](OC(=O)Nc1c(-c2ccc(NC(=O)[C@@H]3C[C@@H]3F)cn2)nnn1C)c1cccnc1Cl [Compound 53, (R)-1-(2-chloropyridin-3-yl)ethyl (4-(5-((1S,2S)-2-fluorocyclopropane-1-carboxamido)pyridin-2-yl)-1-methyl-1H-1,2,3-triazol-5-yl)carbamate] | 1460
3 | C[C@@H](OC(=O)Nc1c(-c2ccc(NC(=O)C3CCO3)cn2)nnn1C)c1cccnc1Cl (stereo partly drawn) [Compound 54, (R)-1-(2-chloropyridin-3-yl)ethyl (1-methyl-4-(5-(oxetane-2-carboxamido)pyridin-2-yl)-1H-1,2,3-triazol-5-yl)carbamate] | 7860
4 | C[C@@H](OC(=O)Nc1c(-c2ccc(NC(=O)C3(C(F)(F)F)CC3)cn2)nnn1C)c1cccnc1Cl [Compound 55, (R)-1-(2-chloropyridin-3-yl)ethyl (1-methyl-4-(5-(1-(trifluoromethyl)cyclopropane-1-carboxamido)pyridin-2-yl)-1H-1,2,3-triazol-5-yl)carbamate] | 478
5 | C[C@@H](OC(=O)Nc1c(-c2ccc(NC(=O)[C@H]3C[C@H]3F)cn2)nnn1C)c1cccnc1Cl [Compound 56, (R)-1-(2-chloropyridin-3-yl)ethyl (4-(5-((1R,2R)-2-fluorocyclopropane-1-carboxamido)pyridin-2-yl)-1-methyl-1H-1,2,3-triazol-5-yl)carbamate] | 1140
6 | C[C@@H](OC(=O)Nc1c(-c2ccc(NC(=O)C3COC3)cn2)nnn1C)c1cccnc1Cl [Compound 57, (R)-1-(2-chloropyridin-3-yl)ethyl (1-methyl-4-(5-(oxetane-3-carboxamido)pyridin-2-yl)-1H-1,2,3-triazol-5-yl)carbamate] | 339
7 | C[C@@H](OC(=O)Nc1c(-c2ccc(NC(=O)c3cccnc3)cn2)nnn1C)c1cccnc1Cl [Compound 58, (R)-1-(2-chloropyridin-3-yl)ethyl (1-methyl-4-(5-(nicotinamido)pyridin-2-yl)-1H-1,2,3-triazol-5-yl)carbamate] | 205
8 | C[C@@H](OC(=O)Nc1c(-c2ccc(NC(=O)CC#N)cn2)nnn1C)c1cccnc1Cl [Compound 59, (R)-1-(2-chloropyridin-3-yl)ethyl (4-(5-(2-cyanoacetamido)pyridin-2-yl)-1-methyl-1H-1,2,3-triazol-5-yl)carbamate] | 264
9 | C[C@@H](OC(=O)Nc1c(-c2ccc(NC(=O)C3(F)CC3)cn2)nnn1C)c1cccnc1Cl [Compound 60, (R)-1-(2-chloropyridin-3-yl)ethyl (4-(5-(1-fluorocyclopropane-1-carboxamido)pyridin-2-yl)-1-methyl-1H-1,2,3-triazol-5-yl)carbamate] | 140
10 | C[C@@H](OC(=O)Nc1c(-c2ccc(NC(=O)c3ccncc3)cn2)nnn1C)c1cccnc1Cl [Compound 61, (R)-1-(2-chloropyridin-3-yl)ethyl (4-(5-(isonicotinamido)pyridin-2-yl)-1-methyl-1H-1,2,3-triazol-5-yl)carbamate] | 134
11 | C[C@@H](OC(=O)Nc1c(-c2ccc(NC(=O)[C@H]3C[C@H](F)C3)cn2)nnn1C)c1cccnc1Cl [Compound 62, (R)-1-(2-chloropyridin-3-yl)ethyl (4-(5-((1r,3R)-3-fluorocyclobutane-1-carboxamido)pyridin-2-yl)-1-methyl-1H-1,2,3-triazol-5-yl)carbamate] | 110
12 | C[C@@H](OC(=O)Nc1c(-c2ccc(NC(=O)C3CCC3(F)F)cn2)nnn1C)c1cccnc1Cl (stereo partly drawn) [Compound 63, (R)-1-(2-chloropyridin-3-yl)ethyl (4-(5-(2,2-difluorocyclobutane-1-carboxamido)pyridin-2-yl)-1-methyl-1H-1,2,3-triazol-5-yl)carbamate] | 120
13 | C[C@@H](OC(=O)Nc1c(-c2ccc(NC(=O)C34CC(C#N)(C3)C4)cn2)nnn1C)c1cccnc1Cl [Compound 64, (R)-1-(2-chloropyridin-3-yl)ethyl (4-(5-(3-cyanobicyclo[1.1.1]pentane-1-carboxamido)pyridin-2-yl)-1-methyl-1H-1,2,3-triazol-5-yl)carbamate] | 76.4
14 | C[C@@H](OC(=O)Nc1c(-c2ccc(NC(=O)[C@@H]3CC3(F)F)cn2)nnn1C)c1cccnc1Cl [Compound 65, (R)-1-(2-chloropyridin-3-yl)ethyl (4-(5-((S)-2,2-difluorocyclopropane-1-carboxamido)pyridin-2-yl)-1-methyl-1H-1,2,3-triazol-5-yl)carbamate] | 81.9
15 | C[C@@H](OC(=O)Nc1c(-c2ccc(NC(=O)C3(C#N)CCC3)cn2)nnn1C)c1cccnc1Cl [Compound 66, (R)-1-(2-chloropyridin-3-yl)ethyl (4-(5-(1-cyanocyclobutane-1-carboxamido)pyridin-2-yl)-1-methyl-1H-1,2,3-triazol-5-yl)carbamate] | 66.6
16 | C[C@@H](OC(=O)Nc1c(-c2ccc(NC(=O)C3(C#N)CC3)cn2)nnn1C)c1cccnc1Cl [Compound 67, (R)-1-(2-chloropyridin-3-yl)ethyl (4-(5-(1-cyanocyclopropane-1-carboxamido)pyridin-2-yl)-1-methyl-1H-1,2,3-triazol-5-yl)carbamate] | 30.8
17 | C[C@@H](OC(=O)Nc1c(-c2ccc(NC(=O)C34CC(C3)C4)cn2)nnn1C)c1cccnc1Cl [Compound 68, (R)-1-(2-chloropyridin-3-yl)ethyl (4-(5-(bicyclo[1.1.1]pentane-1-carboxamido)pyridin-2-yl)-1-methyl-1H-1,2,3-triazol-5-yl)carbamate] | 40.8
18 | C[C@@H](OC(=O)Nc1c(-c2ccc(NC(=O)[C@@H]3C[C@H]3F)cn2)nnn1C)c1cccnc1Cl [Compound 69, (R)-1-(2-chloropyridin-3-yl)ethyl (4-(5-((1S,2R)-2-fluorocyclopropane-1-carboxamido)pyridin-2-yl)-1-methyl-1H-1,2,3-triazol-5-yl)carbamate] | 53
19 | C[C@@H](OC(=O)Nc1c(-c2ccc(NC(=O)C34CC(F)(C3)C4)cn2)nnn1C)c1cccnc1Cl [Compound 70, (R)-1-(2-chloropyridin-3-yl)ethyl (4-(5-(3-fluorobicyclo[1.1.1]pentane-1-carboxamido)pyridin-2-yl)-1-methyl-1H-1,2,3-triazol-5-yl)carbamate] | 47.8
20 | C[C@@H](OC(=O)Nc1c(-c2ccc(NC(=O)[C@H]3C[C@@H](F)C3)cn2)nnn1C)c1cccnc1Cl [Compound 71, (R)-1-(2-chloropyridin-3-yl)ethyl (4-(5-((1s,3S)-3-fluorocyclobutane-1-carboxamido)pyridin-2-yl)-1-methyl-1H-1,2,3-triazol-5-yl)carbamate] | 89.7
21 | C[C@@H](OC(=O)Nc1c(-c2ccc(NC(=O)C34CC(C(F)(F)F)(C3)C4)cn2)nnn1C)c1cccnc1Cl [Compound 72, (R)-1-(2-chloroypridin-3-yl)ethyl (1-methyl-4-(5-(3-(trifluoromethyl)bicyclo[1.1.1]pentane-1-carboxamido)pyridin-2-yl)-1H-1,2,3-triazol-5-yl)carbamate] | 17
22 | C[C@@H](OC(=O)Nc1c(-c2ccc(NC(=O)C3CC4(CCC4)C3)cn2)nnn1C)c1cccnc1Cl [Compound 73, (R)-1-(2-chloropyridin-3-yl)ethyl (1-methyl-4-(5-(spiro[3.3]heptane-2-carboxamido)pyridin-2-yl)-1H-1,2,3-triazol-5-yl)carbamate] | 17.3
23 | C[C@@H](OC(=O)Nc1c(-c2ccc(NC(=O)C3(C#N)CC34CCC4)cn2)nnn1C)c1cccnc1Cl (stereo partly drawn) [Compound 74, (R)-1-(2-chloropyridin-3-yl)ethyl (4-(5-(1-cyanospiro[2.3]hexane-1-carboxamido)pyridin-2-yl)-1-methyl-1H-1,2,3-triazol-5-yl)carbamate] | 1340
24 | C[C@@H](OC(=O)Nc1c(-c2ccc(NC(=O)C#CC3CC3)cn2)nnn1C)c1cccnc1Cl [Compound 75, (R)-1-(2-chloropyridin-3-yl)ethyl (4-(5-(3-cyclopropylpropiolamido)pyridin-2-yl)-1-methyl-1H-1,2,3-triazol-5-yl)carbamate] | 23.4
25 | CC#CC(=O)Nc1ccc(-c2nnn(C)c2NC(=O)O[C@H](C)c2cccnc2Cl)nc1 [Compound 76, (R)-1-(2-chloropyridin-3-yl)ethyl (4 (5-(but-2-ynamido)pyridin-2-yl)-1-methyl-1H-1,2,3-triazol-5-yl)carbamate] | 275
26 | C[C@@H](OC(=O)Nc1c(-c2ccc(NC(=O)C3CC4(C3)CC3(CCC3)C4)cn2)nnn1C)c1cccnc1Cl [Compound 77, (R)-1-(2-chloropyridin-3-yl)ethyl (4-(5-(dispiro[3.1.36.14]decane-2-carboxamido)pyridin-2-yl)-1-methyl-1H-1,2,3-triazol-5-yl)carbamate] | 25.5
27 | C[C@@H](OC(=O)Nc1c(-c2ccc(NC(=O)C3(C(F)(F)F)CC4(CCC4)C3)cn2)nnn1C)c1cccnc1Cl [Compound 78, (R)-1-(2-chloropyridin-3-yl)ethyl (1-methyl-4-(5-(2-(trifluoromethyl)spiro[3.3]heptane-2-carboxamido)pyridin-2-yl)-1H-1,2,3-triazol-5-yl)carbamate] | 83.6
28 | C[C@@H](OC(=O)Nc1c(-c2ccc(NC(=O)C3(C#N)CC4(CCC4)C3)cn2)nnn1C)c1cccnc1Cl [Compound 79, (R)-1-(2-chloropyridin-3-yl)ethyl (4-(5-(2-cyanospiro[3.3]heptane-2-carboxamido)pyridin-2-yl)-1-methyl-1H-1,2,3-triazol-5-yl)carbamate] | 16
29 | C[C@@H](OC(=O)Nc1c(-c2ccc(NC(=O)C3CC4(CC(C#N)C4)C3)cn2)nnn1C)c1cccnc1Cl (stereo partly drawn) [Compound 80, (R)-1-(2-chloropyridin-3-yl)ethyl (4-(5-(6-cyanospiro[3.3]heptane-2-carboxamido)pyridin-2-yl)-1-methyl-1H-1,2,3-triazol-5-yl)carbamate] | 109
